Here are results for three compounds from patent US8883963B2 (Cadila Healthcare Limited, priority 2007, dated 2014).

Holding throughout (type): in vitro ADME
One data set concerns the target DPP IV (Homo sapiens, UniProt P27487). The experiment in a line: Stability against DPP IV enzyme. As to conditions: 37° C.; for % degradation of peptidomimetics in 24 h when incubated with DPP-IV enzyme: 2 μM peptidomimetic; for half-life at 2 μM: DPP IV enzyme, pH 7.8, 2 μM peptidomimetic, read-out: half-life (t1/2) when incubated with DPP-IV enzyme. The method, then: (§1) Reactions were terminated by the addition of TFA/H2O (15 mL, 10% (v/v)). […] The column was equilibrated with TFA/H20, at a flow rate of 1 mL/min.

Data set [1] can be described thus: Stability in human plasma. As to conditions: 2 μM peptidomimetic, pooled human plasma, 37° C.; for half-life at 2 μM: pH 7.8, read-out: half-life (t1/2) when incubated with human plasma. The method, then:
as §1

Data set [2] in a line: Stability in simulated gastric fluid. As to conditions: 2 μM peptidomimetic, simulated gastric fluid pH 1.5, 37° C.; for half-life at 2 μM: read-out: half-life (t1/2) when incubated with simulated gastric fluid. On the procedure:
as §1

The nature of data set [3]: Stability in liver microsomes. As to conditions: 2 μM peptidomimetic, human liver microsomes, 37° C. On the procedure: as §1
Background: Liver microsomes are a subcellular fraction often used to study metabolism.

Data set [4] in a line: Stability in simulated intestinal fluid. As to conditions: 2 μM peptidomimetic, simulated intestinal fluid pH 7.5, 37° C.; for half-life at 2 μM: read-out: half-life (t1/2) when incubated with simulated intestinal fluid. The method, then:
as §1

Non-standard residues stand in square brackets, D forms with d. Residues, ends and D or L forms follow the SMILES beside them. ξ: configuration not given here. *: point of attachment. X3 = CCc1cc(OC)ccc1-c1ccc(CC(N*)C(=S)NC(CCCc2ccccc2)C(N)=O)cc1; Leu(5,5,5,5',5',5'-F6) = N[C@@H](CC(C(F)(F)F)C(F)(F)F)C(=O)O; ξBip(2'-Et-4'-OMe) = CCc1cc(OC)ccc1-c1ccc(CC(N)C(=O)O)cc1; ξNva(5-(4-Cl-2-MePh)) = Cc1cc(Cl)ccc1CCCC(N)C(=O)O; ξαMePhe(2-F) = CC(N)(Cc1ccccc1F)C(=O)O; aThr = C[C@H](O)[C@H](N)C(=O)O; Aib = CC(C)(N)C(=O)O Bounds are passed on as bounds.

Sequence of DPP IV (P27487 whole entry, species assumed): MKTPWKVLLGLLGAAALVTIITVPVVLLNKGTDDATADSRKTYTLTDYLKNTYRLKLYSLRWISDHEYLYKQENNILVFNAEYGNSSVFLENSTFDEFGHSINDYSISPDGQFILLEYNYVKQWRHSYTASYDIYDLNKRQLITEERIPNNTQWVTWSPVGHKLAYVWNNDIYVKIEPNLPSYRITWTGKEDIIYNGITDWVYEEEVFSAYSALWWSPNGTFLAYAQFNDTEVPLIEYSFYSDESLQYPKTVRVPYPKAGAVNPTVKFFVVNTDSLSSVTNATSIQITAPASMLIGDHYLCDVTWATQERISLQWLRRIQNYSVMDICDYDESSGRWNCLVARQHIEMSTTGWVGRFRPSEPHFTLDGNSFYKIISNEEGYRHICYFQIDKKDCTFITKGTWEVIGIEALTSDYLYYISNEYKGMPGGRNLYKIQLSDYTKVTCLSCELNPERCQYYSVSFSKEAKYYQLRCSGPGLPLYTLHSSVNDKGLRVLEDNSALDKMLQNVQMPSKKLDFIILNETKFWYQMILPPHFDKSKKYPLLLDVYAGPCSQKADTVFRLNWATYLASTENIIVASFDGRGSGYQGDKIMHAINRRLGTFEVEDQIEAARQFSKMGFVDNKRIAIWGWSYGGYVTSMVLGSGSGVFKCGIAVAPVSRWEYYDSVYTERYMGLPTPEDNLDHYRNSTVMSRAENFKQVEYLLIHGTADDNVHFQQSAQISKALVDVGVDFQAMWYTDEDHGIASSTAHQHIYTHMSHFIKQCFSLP

Take `CCc1cc(OC)ccc1-c1ccc(CC(NC(=O)[C@H](CC(=O)O)NC(=O)[C@H](CO)NC(=O)[C@@H](NC(=O)[C@H](Cc2ccccc2)NC(=O)[C@@H](NC(=O)CNC(=O)[C@H](CCC(N)=O)NC(=O)[C@H](CO)NC(=O)[C@@H](N)Cc2c[nH]cn2)[C@@H](C)O)[C@@H](C)O)C(=O)NC(CCCc2ccc(Cl)cc2C)C(N)=O)cc1` (some centres unmarked) [compound 8] (H-HSQGTFTSD[ξBip(2'-Et-4'-OMe)][ξNva(5-(4-Cl-2-MePh))]-NH2): on DPP IV, the “% degradation of peptidomimetics in 24 h when incubated with DPP-IV enzyme” value (“% degradation … with DPP-IV enzyme” for short) was 00% and the half-life at 2 μM is greater than 24 h. Further, in data set [1], the “% degradation of peptidomimetics in 24 h when incubated with human plasma” value (shortened to “% degradation … with human plasma”) amounted to 00% and the half-life at 2 μM is greater than 24 h. In data set [2], the “% degradation of peptidomimetics in 24 h when incubated with simulated gastric fluid” value (shortened to “% degradation … with simulated gastric fluid”) was 00% and the half-life at 2 μM is greater than 24 h. Besides, in data set [3], the “half-life (t1/2) when incubated with liver microsomes” value is given as “(5) h” and the “% degradation of peptidomimetics in 24 h when incubated with liver microsomes” value (from here on “% degradation … with liver microsomes”) was found to be 35%. For the same compound, in data set [4], the “% degradation of peptidomimetics in 24 h when incubated with simulated intestinal fluid” value (from here on “% degradation … with simulated intestinal fluid”) was 00% and the half-life at 2 μM was greater than 24 h.

As for `CCc1cc(OC)ccc1-c1ccc(CC(NC(=O)[C@H](CC(=O)O)NC(=O)[C@H](CO)NC(=O)[C@@H](NC(=O)C(C)(Cc2ccccc2F)NC(=O)[C@@H](NC(=O)CNC(=O)[C@H](CC(C(F)(F)F)C(F)(F)F)NC(=O)C(C)(C)NC(=O)[C@@H](N)Cc2c[nH]cn2)[C@H](C)O)[C@H](C)O)C(=S)NC(CCCc2ccccc2)C(N)=O)cc1` (some centres unmarked) [compound 219] (H-H[Aib][Leu(5,5,5,5',5',5'-F6)]G[aThr][ξαMePhe(2-F)][aThr]SD-X3), at DPP IV, the “% degradation … with DPP-IV enzyme” value is reported as 00% and the half-life at 2 μM was greater than 24 h. In addition, in data set [1], the “% degradation … with human plasma” value is 00% and the half-life at 2 μM is greater than 24 h. Moreover, in data set [2], the “% degradation … with simulated gastric fluid” value is on record as 00% and the half-life at 2 μM is greater than 24 h. In data set [3], the “half-life (t1/2) when incubated with liver microsomes” value is “(5) h” and the “% degradation … with liver microsomes” value is 33%. Further, in data set [4], the “% degradation … with simulated intestinal fluid” value is 00% and the half-life at 2 μM was greater than 24 h.

As to `CCc1cc(OC)ccc1-c1ccc(CC(NC(=O)[C@H](CC(=O)O)NC(=O)[C@H](CO)NC(=O)[C@@H](NC(=O)C(C)(Cc2ccccc2F)NC(=O)[C@@H](NC(=O)CNC(=O)[C@H](CC(C(F)(F)F)C(F)(F)F)NC(=O)C(C)(C)NC(=O)[C@@H](N)Cc2c[nH]cn2)[C@@H](C)O)[C@@H](C)O)C(=O)NC(CCCc2ccccc2)C(N)=O)cc1` (some centres unmarked) [compound 234], the “% degradation … with DPP-IV enzyme” value at DPP IV is 72%. For the same compound, in data set [1], the “half-life (t1/2) when incubated with human plasma” value was “(9) h” and the “% degradation … with human plasma” value is 70%. In data set [2], the “% degradation … with simulated gastric fluid” value is 100% and the half-life at 2 μM is 0.5 h. Besides, the “% degradation … with liver microsomes” value in data set [3] is reported as 100%. Also, the half-life at 2 μM in data set [3] (pH 7.8, read-out: half-life (t1/2) when incubated with liver microsomes) is 0.5 h. Moreover, in data set [4], the “% degradation … with simulated intestinal fluid” value is listed as 100% and the half-life at 2 μM is 0.5 h.
